Experimental data reported in the C3SDB collision cross section collection.
“And” between values parts separate entries of the source, which are not always exact repeats. Equal values may be shown once.

Tests used:
[1] = instrument: TW, calibrated with phosphatidylcholines (ESI+) and phosphatidylethanolamines (ESI-)
[2] = instrument: DT, single field, calibrated with Agilent tune mix (Agilent)
[3] = instrument: DT, stepped-field
[4] = [M+Na]+; instrument: DT; stepped-field

## CCCCCCCCCCCCC=CC[C@@H](O)[C@H](CO)NC(=O)CCCCCCCCCCCCCCCCCCCCC [Cer(d18:0/22:1)]
[1]; [M+H]+
  collision cross section (N2): 271.9 Å²

## CCCCCCCCCCCCC=CC[C@@H](O)[C@H](CO)NC(=O)CC=CCCCCCCCCCCCCCC [Cer(d18:1/18:1)]
[1]; [M+H]+
  collision cross section (N2): 257.6 Å²
[1]; [M-H]-
  collision cross section (N2): 248.5 Å²

## CCCCCCCCCCCCC=CC[C@@H](O)[C@H](CO)NC(=O)CCCCCCCCCCCCCCCCCCC [Cer(d18:1/20:0)]
[1]; [M+H]+
  collision cross section (N2): 266.5 Å²
[1]; [M-H]-
  collision cross section (N2): 255.8 Å²

## CCCCCCCCCCCCC=CC[C@@H](O)[C@H](CO)NC(=O)CCCCCCCCCCCCCCCCCCCCC [Cer(d18:1/22:0)]
[1]; [M+H]+
  collision cross section (N2): 271.8 Å²
[1]; [M-H]-
  collision cross section (N2): 262 Å²

## CCCCCCCCCCCCC=CC[C@@H](O)[C@H](CO)NC(=O)CCCCCCCCCCCCCCCCCCCCCCC [Cer(d18:1/24:0)]
[1]; [M+H]+
  collision cross section (N2): 279.1 Å²
[1]; [M-H]-
  collision cross section (N2): 268 Å²

## CCCCCCCCCCCCC=CC[C@@H](O)[C@H](CO)NC(=O)CC=CCCCCCCCCCCCCCCCCCCCC [Cer(d18:1/24:1)]
[1]; [M+H]+
  collision cross section (N2): 276.8 Å²
[1]; [M-H]-
  collision cross section (N2): 266.4 Å²

## CCCCCCCCCCCCCCCC(=O)O[C@@H](CO)COC(=O)CCCCCCCCCCC [DG(14:0/14:0)]
[1]; [M+H-H2O]+
  collision cross section (N2): 242.3 Å²

## CCCCCCCCCCCCCCCCCCCCCC(=O)O[C@@H](CO)COC(=O)CCCCCCCCCCCCC [DG(18:0/18:0)]
[1]; [M+H-H2O]+
  collision cross section (N2): 270.5 Å²

## CCCCC/C=C\C/C=C\C/C=C\CCCCC(=O)OC[C@H](CO)OC(=O)CCCCCCC/C=C\CCCCCCCC [DG(18:2/18:2)]
[1]; [M+H-H2O]+
  collision cross section (N2): 255.9 Å²

## CC/C=C\C/C=C\C/C=C\C/C=C\C/C=C\CCCCCC(=O)O[C@@H](CO)COC(=O)CCCC/C=C\C/C=C\C/C=C\CCCCC [DG(20:4/20:4)]
[1]; [M+H-H2O]+
  collision cross section (N2): 262.6 Å²

## CCCCCCCCCCCCC=CC[C@@H](O)[C@H](CO[C@@H]1O[C@H](CO)[C@@H](O)C(O)C1O)NC(=O)CCCCCCCCCCCCCCCCC (stereo not given in full) [GlcCer(36:1)]
[2]; [M+HCOO]-
  collision cross section (N2): 283.3 Å²
[2]; [M+H]+
  collision cross section (N2): 284.1 Å²
[2]; [M+Na]+
  collision cross section (N2): 283.5 Å²
[3]; [M+Na]+
  collision cross section (N2): 286.7 Å²

## CCCCCCCCCCCCC=CC[C@@H](O)[C@H](CO[C@@H]1O[C@H](CO)[C@@H](O)C(O)C1O)NC(=O)CCCCCCCCCCCCCCCCCCCCC (stereo not given in full) [GlcCer(40:1)]
[2]; [M+HCOO]-
  collision cross section (N2): 294.5 Å²
[2]; [M+H]+
  collision cross section (N2): 295.1 Å²
[2]; [M+Na]+
  collision cross section (N2): 296.5 Å²
[3]; [M+Na]+
  collision cross section (N2): 301.1 Å²

## CCCCCCCCCCCCC=CC[C@@H](O)[C@H](CO[C@@H]1O[C@H](CO)[C@@H](O)C(O)C1O)NC(=O)CCCCCCCCCCCCCCCCCCCCCC (stereo not given in full) [GlcCer(41:1)]
[2]; [M+H]+
  collision cross section (N2): 298.5 Å²
[3]; [M+Na]+
  collision cross section (N2): 302.5 Å²

## CCCCCCCCCCCCC=CC[C@@H](O)[C@H](CO[C@@H]1O[C@H](CO)[C@@H](O)C(O)C1O)NC(=O)CCCCCCCCCCCCCCCCCCCCCCC (stereo not given in full) [GlcCer(42:1)]
[2]; [M+HCOO]-
  collision cross section (N2): 299.4 Å²
[2]; [M+H]+
  collision cross section (N2): 301.5 Å²
[2]; [M+Na]+
  collision cross section (N2): 302.8 Å²
[3]; [M+Na]+
  collision cross section (N2): 307.5 Å²

## CCCCCCCCCCCCC=CC[C@@H](O)[C@H](CO[C@@H]1O[C@H](CO)[C@@H](O)C(O)C1O)NC(=O)CCCCCCCCCCCCCCCCC (stereo not given in full) [GlcCer(d18:1/18:0)]
[1]; [M+H]+
  collision cross section (N2): 282.6 Å²
[1]; [M+Na]+
  collision cross section (N2): 282.2 Å²

## CCCCCCCCCCCCC=CC[C@@H](O)[C@H](CO[C@@H]1O[C@H](CO)[C@@H](O)C(O)C1O)NC(=O)CCCCCCCCCCCCCCCCCCC (stereo not given in full) [GlcCer(d18:1/20:0)]
[1]; [M+H]+
  collision cross section (N2): 287.8 Å²

## CCCCCCCCCCCCC=CC[C@@H](O)[C@H](CO[C@@H]1O[C@H](CO)[C@@H](O)C(O)C1O)NC(=O)CCCCCCCCCCCCCCCCCCCCC (stereo not given in full) [GlcCer(d18:1/22:0)]
[1]; [M+H]+
  collision cross section (N2): 293.2 Å²
[1]; [M+Na]+
  collision cross section (N2): 294.3 Å²

## CCCCCCCCCCCCC=CC[C@@H](O)[C@H](CO[C@@H]1O[C@H](CO)[C@@H](O)C(O)C1O)NC(=O)CC=CCCCCCCCCCCCCCCCCCC (stereo not given in full) [GlcCer(d18:1/22:1)]
[1]; [M+H]+
  collision cross section (N2): 293.1 Å²
[1]; [M+Na]+
  collision cross section (N2): 290.1 Å²

## CCCCCCCCCCCCC=CC[C@@H](O)[C@H](CO[C@@H]1O[C@H](CO)[C@@H](O)C(O)C1O)NC(=O)CCCCCCCCCCCCCCCCCCCCCCC (stereo not given in full) [GlcCer(d18:1/24:0)]
[1]; [M+H]+
  collision cross section (N2): 299.7 Å²
[1]; [M+Na]+
  collision cross section (N2): 299.1 Å²

## CCCCCCCCCCCCC=CC[C@@H](O)[C@H](CO[C@@H]1O[C@H](CO)[C@@H](O)C(O)C1O)NC(=O)CC=CCCCCCCCCCCCCCCCCCCCCCC (stereo not given in full) [GlcCer(d18:1/26:1)]
[1]; [M+H]+
  collision cross section (N2): 304.5 Å²
[1]; [M+Na]+
  collision cross section (N2): 304.7 Å²

## CCCCCCCCCCCCCCCC/C=C\OC[C@@H](O)COP(=O)([O-])OCC[NH3+] [LPE(p18:0)]
[1]; [M+H]+
  collision cross section (N2): 222.5 Å²
[1]; [M+Na]+
  collision cross section (N2): 222 Å²
[1]; [M-H]-
  collision cross section (N2): 211.4 Å²

## OC[C@H]1O[C@@](CO)(O[C@H]2O[C@H](CO)[C@@H](O)[C@H](O)[C@H]2O)[C@@H](O[C@H]2O[C@H](CO)[C@@H](O)[C@H](O)[C@H]2O)[C@@H]1O [Melezitose]
[3]; [M+Cs]+
  collision cross section (N2): 205.8 Å²
[3]; [M+H]+
  collision cross section (N2): 202.6 Å²
[3]; [M+K]+
  collision cross section (N2): 221.9 Å²
[3]; [M+Li]+
  collision cross section (N2): 202.9 Å²
[3]; [M+Na]+
  collision cross section (N2): 202.7 Å²
[3]; [M+Rb]+
  collision cross section (N2): 204.1 Å² and 219.2 Å²
[4]
  collision cross section (N2): 203.23 Å²

## CCCCCCC/C=C\CCCCCCCC(=O)OC[C@H](COP(=O)([O-])OCC[N+](C)(C)C)OC(=O)CCCCCCC/C=C\CCCCCCCC [PC(35:2)]
[2]; [M+H]+
  collision cross section (N2): 286.4 Å²
[3]; [M+K]+
  collision cross section (N2): 297.7 Å²

## CCCCCCCCCCCCCCCCCCC(=O)O[C@H](COC(=O)CCCCCCCCCCCCCCCC)COP(=O)([O-])OCC[N+](C)(C)C [PC(36:0)]
[1]; [M+H]+
  collision cross section (N2): 292.5 Å²

## CC/C=C\C/C=C\C/C=C\C/C=C\C/C=C\C/C=C\CCC(=O)OC[C@H](COP(=O)(O)OCCN)OC(=O)CCC/C=C\C/C=C\C/C=C\C/C=C\C/C=C\CC [PE(42:11)]
[1]; [M+H]+
  collision cross section (N2): 280.2 Å²

## CCCCC/C=C\C/C=C\C/C=C\C/C=C\CCCC(=O)O[C@H](CO/C=C\CCCCCCCCCCCCCCCCCC)COP(=O)(O)OCCN [PE(p40:4)]
[1]; [M+H]+
  collision cross section (N2): 286.9 Å²
[1]; [M+Na]+
  collision cross section (N2): 290.1 Å²
[1]; [M-H]-
  collision cross section (N2): 276.1 Å²

## CC/C=C\C/C=C\C/C=C\C/C=C\C/C=C\CCCC(=O)OC[C@H](COP(=O)(O)OC[C@@H](O)CO)OC(=O)CCCCCCCCC/C=C\C/C=C\CCCCC [PG(40:7)]
[1]; [M+Na]+
  collision cross section (N2): 288.3 Å²

## CCCCC/C=C\C/C=C\C/C=C\CCCCCCC(=O)O[C@H](COC(=O)CCCC/C=C\C/C=C\C/C=C\CCCCC)COP(=O)(O)O[C@H]1C(O)C(O)C(O)[C@@H](O)C1O (stereo not given in full) [PI(38:6)]
[1]; [M+Na]+
  collision cross section (N2): 292.4 Å²

## CCCCCCCC/C=C\CCCCCCCC(=O)OC[C@H](COP(=O)(O)O[C@H]1C(O)C(O)C(O)[C@@H](OP(=O)(O)O)C1O)OC(=O)CCCCCCC/C=C\CCCCCCCC (stereo not given in full) [PIP(36:2)]
[1]; [M+H-H2O]+
  collision cross section (N2): 295.5 Å²

## CCCCC/C=C\C/C=C\C/C=C\CCCCCCC(=O)OC[C@H](COP(=O)(O)OC[C@H](N)C(=O)O)OC(=O)CCCCCCC/C=C\C/C=C\CCCCC [PS(38:5)]
[1]; [M-H]-
  collision cross section (N2): 279 Å²

## CCCCCCCCCCCCC=CC[C@@H](O)[C@H](COP(=O)([O-])OCC[N+](C)(C)C)NC(=O)CCCCCCCCCCCCCCCCCC [SM(37:1)]
[2]; [M+H]+
  collision cross section (N2): 290.8 Å²
[3]; [M+Na]+
  collision cross section (N2): 294.8 Å²

## CCCCCCCCCCCCC=CC[C@@H](O)[C@H](COP(=O)([O-])OCC[N+](C)(C)C)NC(=O)CCCCCCCCCCCCCCCCCCCC [SM(39:1)]
[2]; [M+H]+
  collision cross section (N2): 297.4 Å²
[3]; [M+Na]+
  collision cross section (N2): 301.6 Å²

## CCCCCCCCCCCCC=CC[C@@H](O)[C@H](COP(=O)([O-])OCC[N+](C)(C)C)NC(=O)CC=CCC=CCCCCCCCCCCCCCCC [SM(40:3)]
[2]; [M+H]+
  collision cross section (N2): 294.6 Å²
[3]; [M+Na]+
  collision cross section (N2): 299.9 Å²

## CCCCCCCCCCCCC=CC[C@@H](O)[C@H](COP(=O)([O-])OCC[N+](C)(C)C)NC(=O)CCCCCCCCCCCCCCCCCCC [SM(d18:1/20:0)]
[1]; [M+H]+
  collision cross section (N2): 292.2 Å²

## CCCCCCCCCCCCC=CC[C@@H](O)[C@H](COP(=O)([O-])OCC[N+](C)(C)C)NC(=O)CCCCCCCCCCCCCCCCCCCCCCC [SM(d18:1/24:0)]
[1]; [M+H]+
  collision cross section (N2): 302.2 Å²

## CC(C)C[C@H](NC(=O)[C@H](CO)NC(=O)[C@@H](N)C(C)C)C(=O)N[C@@H](C)C(=O)N[C@@H](CCC(=O)O)C(=O)N[C@@H](CCCCN)C(=O)O [VSLAEK]
[3]; [M+H]+
  collision cross section (N2): 249 Å²
